Assay results published in PubChem BioAssay (NCI).
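All cell lines were grown in 96-well plates and treated with compound for 48 hours. TGI: total growth inhibition.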

Columns and labels:
Experiment in all cases: NCI tumour cell line growth inhibition, 48 h
SNB-75 CNS = system: SNB-75 CNS
SK-MEL-5 melanoma = system: SK-MEL-5 melanoma
ACHN renal = system: ACHN renal
HCT-15 colon = system: HCT-15 colon
CAKI-1 renal = system: CAKI-1 renal
NCI/ADR-RES ovarian = system: NCI/ADR-RES ovarian
MDA-MB-435 = system: MDA-MB-435
786-0 renal = system: 786-0 renal
HOP-92 NSCLC = system: HOP-92 NSCLC
MDA-MB-231 breast = system: MDA-MB-231 breast

Structure (SMILES) | TGI (SNB-75 CNS) | TGI (SK-MEL-5 melanoma) | TGI (ACHN renal) | TGI (HCT-15 colon) | TGI (CAKI-1 renal) | TGI (NCI/ADR-RES ovarian) | TGI (MDA-MB-435) | TGI (786-0 renal) | TGI (HOP-92 NSCLC) | TGI (MDA-MB-231 breast)
COc1ccc(/C=N/N=C(N)N)c(C(=O)O)c1OC | > 100 µM | > 100 µM | > 100 µM | > 100 µM | > 100 µM |  |  |  |  | 
CSCC[C@@H](NC(=O)[C@H](CC(C)C)NC(=O)C(Cc1cnc[nH]1)NC(=O)CNC(=O)[C@@H](NC(=O)[C@H](C)NC(=O)[C@H](Cc1cn(C=O)c2ccccc12)NC(=O)[C@H](CCC(N)=O)NC(=O)[C@@H](N)CC(N)=O)C(C)C)C(N)=O (stereo partly drawn) | > 100 µM | > 100 µM |  | > 100 µM |  | > 100 µM |  |  |  | 
O=C(/C=C/c1ccccc1O)CC(=O)/C=C/c1ccccc1O | > 78.7 µM | 14.6 µM | 25.9 µM | 19.9 µM | 29.9 µM | 14.5 µM | > 31.6 µM | 16.1 µM | 53.7 µM | 
Brc1ccc2c(c1)[C@H]1CCc3c([nH]c4ccccc34)[C@H]1N2 | 35.7 µM | 12.1 µM | 25 µM |  | 21.8 µM | 29.6 µM | 26.2 µM |  | 26.3 µM | 12.3 µM
O=C1CCCc2ccc3c(c21)CC1(Cc2cc4c(cc2C1)CCCC4)C3 | 65.1 µM | 26.2 µM | 30 µM | 61.3 µM |  | > 100 µM | 46.7 µM | 33 µM | 28 µM | 38.2 µM
Clc1ccc2nc3c(c(-c4ccccc4)nn3-c3ccccc3)c(-c3ccccc3)c2c1 | > 100 µM | > 100 µM | > 100 µM | > 100 µM |  | > 100 µM | > 100 µM | > 100 µM | > 100 µM | > 100 µM
CC(=O)Nc1ccc(S(=O)(=O)/N=c2/sc(S(N)(=O)=O)nn2C)cc1 | > 100 µM |  | > 100 µM | > 100 µM | > 100 µM | > 100 µM | > 100 µM | > 100 µM | > 100 µM | > 100 µM
CCNc1nc2ccccc2nc1NCC | > 100 µM | > 100 µM | > 100 µM | > 100 µM | > 100 µM | > 100 µM | > 100 µM | > 100 µM |  | > 100 µM
CO/C=C(/C(=O)OC)c1ccccc1[C@H]1C[C@@H]1c1ccc(OC)cc1 |  | 26.2 µM | 74.2 µM | 66.1 µM | 57.4 µM | 52.6 µM | 27.8 µM | > 100 µM | > 100 µM | 94.2 µM
C=C1CN(C(=O)c2cc3cc(OC)c(OC)c(OC)c3[nH]2)c2cc([N+](=O)[O-])ccc21 | > 100 µM | > 100 µM |  | > 100 µM | > 100 µM | > 100 µM | > 100 µM | > 100 µM | > 100 µM | 88.5 µM
COC(=O)[C@@]12CC3CN(Cc4c1[nH]c1ccccc41)C2CC3=O | > 100 µM |  | > 100 µM | > 100 µM | > 100 µM | > 100 µM | > 100 µM | > 100 µM | > 100 µM | > 100 µM
c1ccc2c(c1)N=c1ccccc1=P21c2ccccc2Nc2ccccc21 | 4.67 µM | 0.42 µM | 10.9 µM | > 71.4 µM | 8.02 µM | > 100 µM | 2.35 µM | 11.7 µM | 2.32 µM | 
